Values of other authors as cited in patent US20070225544A1, “APPARATUSES AND TECHNIQUES FOR BIOACTIVE DRUG DELIVERY IN THE PROSTATE GLAND” (priority 2006, published 2007).

What was measured:
[1] = tested on: benign prostatic hypertrophy (BPH); conditions: in vivo

Compound | decrease in urinary symptoms [1] [%] | effective for up to ... in managing BPH [1] | Duration (relative duration of action of injectable corticosteroid agent) | Potency (relative potency of injectable corticosteroid agent)
botulinum-toxin | 30 | up to 1 year |  | 
CC(=O)OCC(=O)[C@@]1(O)CC[C@H]2[C@@H]3CCC4=CC(=O)CC[C@]4(C)[C@H]3[C@@H](O)C[C@@]21C [Hydrocortisone acetate] |  |  | Short | Low
